MIC data for nine compounds are collected here from ChEMBL document CHEMBL4725221, “Thiazoles, Their Benzofused Systems, and Thiazolidinone Derivatives: Versatile and Promising Tools to Combat Antibiotic Resistance” (J Med Chem, 2020).

Holding throughout (assay type): functional
Experiment [1] has as its system Staphylococcus aureus. Put plainly: Antibacterial activity against Staphylococcus aureus ATCC 29213 by NCCLS protocol based broth microdilution method. Background: In broth dilution the organism is exposed to a series of concentrations in liquid medium.
Experiment [2] has as its system Staphylococcus aureus. Put plainly: Antibacterial activity against methicillin resistant Staphylococcus aureus 090 by NCCLS protocol based broth microdilution method.
For experiment [3], the system named is Bacillus subtilis. Put plainly: Antibacterial activity against Bacillus subtilis.
The subject of another experiment is Pseudomonas aeruginosa. Nature of the experiment: Antibacterial activity against Pseudomonas aeruginosa.
For experiment [4], the system named is Staphylococcus aureus. Put plainly: Antibacterial activity against Staphylococcus aureus.
For another experiment, the system named is Klebsiella pneumoniae. Put plainly: Antibacterial activity against Klebsiella pneumoniae.
For another experiment, the system named is Escherichia coli. Put plainly: Antibacterial activity against Escherichia coli ATCC 25922 after 20 hrs by cup plate method.
Experiment [5] has as its system Bacillus subtilis. Nature of the experiment: Antibacterial activity against Bacillus subtilis ATCC 10400 after 20 hrs by cup plate method.
Experiment [6] relates to Staphylococcus aureus. Nature of the experiment: Antibacterial activity against Staphylococcus aureus ATCC 29213 after 20 hrs by cup plate method.
Another experiment has as its system Enterococcus faecalis. Put plainly: Antibacterial activity against Enterococcus faecalis ATCC 29212 after 20 hrs by cup plate method.

Structures are written as SMILES. Values after ≈ are worked out from the molar mass of the structure shown.

Broadly, the MIC is the lowest concentration found to suppress growth. A lower MIC goes with a more susceptible organism. Take `O=[N+]([O-])c1ccc2nc(S)sc2c1`: inhibition of growth against Staphylococcus aureus [1] (MIC) required 12.5 µg/mL (≈ 58.9 µM).
The compound `COc1ccc(/C=N/Nc2nc3cccc(C)c3s2)c(OC)c1` displayed a minimal inhibitory concentration (MIC) in the experiment on Staphylococcus aureus [2] of 22 µg/mL (≈ 67.2 µM).
Same read-out and setting: the result for `Cc1cccc2nc(N/N=C/c3ccc(O)cc3O)sc12` reads 20 µg/mL (≈ 66.8 µM); that for `Cc1cccc2nc(N/N=C/c3cc(O)c(O)c(O)c3)sc12`, 18 µg/mL (≈ 57.1 µM).
Compound `FC(F)(F)c1ccc2nc(S)sc2c1` came in with an MIC against Staphylococcus aureus [1] of 3.12 µg/mL (≈ 13.3 µM).
Regarding `Fc1ccc(-c2csc(-n3nc(-c4ccc(F)cc4)cc3-c3cc4ccccc4[nH]3)n2)cc1`, the MIC against Bacillus subtilis [3] worked out at 50 µg/mL (≈ 110 µM); with Pseudomonas aeruginosa, 25 µg/mL (≈ 55 µM); in the experiment with Staphylococcus aureus [4], 50 µg/mL (≈ 110 µM); with Klebsiella pneumoniae, 25 µg/mL (≈ 55 µM).
As for `COc1ccc(-c2n[nH]c(N3C(=O)CS[C@H]3c3ccc(Cl)cc3)n2)cc1`, the MIC is 16 µg/mL (≈ 41.4 µM) with Escherichia coli, 16 µg/mL (≈ 41.4 µM) against Bacillus subtilis [5], 8 µg/mL (≈ 20.7 µM) against Staphylococcus aureus [6] and 16 µg/mL (≈ 41.4 µM) in the experiment with Enterococcus faecalis.
In the case of `O=[N+]([O-])c1ccc(-c2cc(-c3cc4ccccc4[nH]3)n(-c3nc(-c4ccc(F)cc4)cs3)n2)cc1`, the MIC was 25 µg/mL (≈ 51.9 µM) against Bacillus subtilis [3], 6.25 µg/mL (≈ 13 µM) with Pseudomonas aeruginosa, 25 µg/mL (≈ 51.9 µM) against Staphylococcus aureus [4] and 12.5 µg/mL (≈ 26 µM) in the experiment with Klebsiella pneumoniae.
For the compound `O=C(N[C@H](CO)[C@H](O)c1ccc([N+](=O)[O-])cc1)C(Cl)Cl` [CHLORAMPHENICOL], the minimum inhibitory concentration (MIC) turned out to be 6.25 µg/mL (≈ 19.3 µM) against Bacillus subtilis [3], 6.25 µg/mL (≈ 19.3 µM) in the experiment with Pseudomonas aeruginosa, 6.25 µg/mL (≈ 19.3 µM) with Staphylococcus aureus [4] and 12.5 µg/mL (≈ 38.7 µM) in the experiment on Klebsiella pneumoniae.
